pIC50: −log10 of the molar value.
How the values were obtained:
[1] = molecular target: T1, Kynureninase (Rattus norvegicus, UniProt P70712); assay: Ability to inhibit kynureninase was determined in a competitive inhibition assay.
T1 sequence (P70712 whole entry): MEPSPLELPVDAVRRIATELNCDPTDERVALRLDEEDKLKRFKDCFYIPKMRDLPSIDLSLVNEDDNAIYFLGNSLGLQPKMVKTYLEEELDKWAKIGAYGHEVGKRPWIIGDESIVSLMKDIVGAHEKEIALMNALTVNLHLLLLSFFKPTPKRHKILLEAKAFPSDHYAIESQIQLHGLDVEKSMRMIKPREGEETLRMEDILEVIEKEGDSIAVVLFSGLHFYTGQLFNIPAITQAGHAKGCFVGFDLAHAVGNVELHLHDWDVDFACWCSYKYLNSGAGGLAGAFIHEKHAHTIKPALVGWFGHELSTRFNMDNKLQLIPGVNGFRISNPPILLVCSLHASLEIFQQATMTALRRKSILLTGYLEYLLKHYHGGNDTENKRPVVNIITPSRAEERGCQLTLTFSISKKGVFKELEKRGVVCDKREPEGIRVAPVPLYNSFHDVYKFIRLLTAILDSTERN

[2] = system: Mus musculus; assay: Sedative and anticonvulsant effects at dose 200 mg/kg, administered intraperitoneally; value expressed as death /tested =0/13; type: ADME, organism-based; design: dose 200 mg/kg, route intraperitoneal; conditions: in vivo, ip
[3] = system: Mus musculus; assay: Sedative and anticonvulsant effects at dose 400 mg/kg, administered intraperitoneally; value expressed as death /tested =2/6; type: organism-based; design: dose 400 mg/kg, route intraperitoneal; conditions: in vivo, ip
[4] = system: Mus musculus; assay: Sedative and anticonvulsant effects at dose 400 mg/kg, administered intraperitoneally; value expressed as clonic /tested =4/6; type: functional; conditions: route intraperitoneal
[5] = system: Mus musculus; assay: Sedative and anticonvulsant effects at dose 200 mg/kg, administered intraperitoneally; value expressed as clonic /tested =6/13; type: functional; conditions: route intraperitoneal
[6] = system: Mus musculus; assay: Sedative and anticonvulsant effects at dose 400 mg/kg, administered intraperitoneally; value expressed as tonic /tested =2/6; type: functional; conditions: route intraperitoneal
[7] = system: Mus musculus; assay: Sedative and anticonvulsant effects at dose 200 mg/kg, administered intraperitoneally; value expressed as tonic /tested =1/13; type: functional; conditions: route intraperitoneal
[8] = system: Rattus norvegicus; assay: Effect on kynurenic acid (KYNA) content in rat blood at dose 400 mg/kg administered intraperitoneally; type: functional; conditions: route intraperitoneal
[9] = system: Rattus norvegicus; assay: Effect on kynurenic acid (KYNA) content in rat brain at dose 400 mg/kg administered intraperitoneally; type: functional; conditions: route intraperitoneal
[10] = system: Rattus norvegicus; assay: Effect on kynurenic acid (KYNA) content in rat liver at dose 400 mg/kg administered intraperitoneally; type: functional; conditions: route intraperitoneal
[11] = system: Rattus norvegicus; assay: Effect on […] (KYN) content in rat blood at dose 400 mg/kg administered intraperitoneally; type: functional; conditions: route intraperitoneal
[12] = system: Rattus norvegicus; assay: Effect on […] (KYN) content in rat brain at dose 400 mg/kg administered intraperitoneally; type: functional; conditions: route intraperitoneal
[13] = system: Rattus norvegicus; assay: Effect on […] (KYN) content in rat liver at dose 400 mg/kg administered intraperitoneally; type: functional; conditions: route intraperitoneal
[14] = molecular target: Kynurenine 3-monooxygenase (Rattus norvegicus) (UniProt O88867); assay: Differences in inhibition of kynurenine-3-hydroxylase by m-NBA versus compound is determined
Sequence of Kynurenine 3-monooxygenase (Rattus norvegicus) (O88867 whole entry, looked up): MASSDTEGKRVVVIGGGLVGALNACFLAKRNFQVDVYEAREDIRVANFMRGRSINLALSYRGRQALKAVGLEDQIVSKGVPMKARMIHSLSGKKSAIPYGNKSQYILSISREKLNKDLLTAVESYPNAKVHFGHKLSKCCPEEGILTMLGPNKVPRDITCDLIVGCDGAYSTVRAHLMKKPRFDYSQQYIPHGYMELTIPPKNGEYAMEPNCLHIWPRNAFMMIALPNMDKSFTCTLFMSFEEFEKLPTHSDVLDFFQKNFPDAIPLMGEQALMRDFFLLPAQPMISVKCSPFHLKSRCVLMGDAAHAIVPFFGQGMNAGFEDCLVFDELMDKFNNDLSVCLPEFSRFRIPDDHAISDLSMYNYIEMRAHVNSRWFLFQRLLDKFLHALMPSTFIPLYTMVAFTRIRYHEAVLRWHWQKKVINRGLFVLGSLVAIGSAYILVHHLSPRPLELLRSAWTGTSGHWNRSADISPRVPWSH

[15] = molecular target: Kynurenine 3-monooxygenase (Rattus norvegicus, UniProt O88867); assay: Ability to inhibit kynurenine-3-hydroxylase was determined in a competitive inhibition assay.
Sequence of Kynurenine 3-monooxygenase (O88867 whole entry): as the sequence (O88867 whole entry, looked up) above

With `NC(CC(=O)c1cccc([N+](=O)[O-])c1)C(=O)O` (configuration not stated) the pIC50 [1] was 4.00, the Death [2] was 0 and the Death [3] was 2. The Clonic [4] was 4, the Clonic [5] was 6 and the Tonic [6] was 2. It also gave a Tonic [7] of 1, an Effect [8] of 120 pmol/g and an Effect [9] of 150 pmol/g. It also gave an Effect [10] of 250 pmol/g, an Effect [11] of 16000 pmol/g and an Effect [12] of 4000 pmol/g. It also gave an Effect [13] of 4000 pmol/g.
For `NC(CC(=O)c1cccnc1)C(=O)O` (configuration not stated) [NICOTINOYLALANINENAL], the pIC50 [1] was 3.10, the -Log IC50/IC50 [14] was 2.89 and the pIC50 [15] was 3.05.
In the case of `NC(CC(=O)c1ccc([N+](=O)[O-])cc1)C(=O)O` (configuration not stated), the pIC50 [1] was 3.05, the -Log IC50/IC50 [14] was 2.52 and the pIC50 [15] was 3.52.
With `NC(CC(=O)c1ccccc1[N+](=O)[O-])C(=O)O` (configuration not stated) [(ortho-nitrobenzoyl)alanine] the pIC50 [1] was 4.00, the -Log IC50/IC50 [14] was 2.94 and the pIC50 [15] was 2.70.

Reference: ChEMBL document CHEMBL1127625, “Modulation of the kynurenine pathway in search for new neuroprotective agents. Synthesis and preliminary evaluation of (m-nitrobenzoyl)alanine, a potent inhibitor of kynurenine-3-hydroxylase” (J Med Chem, 1994)
